Test results as given in patent US12215123B2, “Cordycepin-based derivatized compound with anti-tumor effect” (NANJING TECH UNIVERSITY, priority 2022, dated 2025).
Where a name gives a salt, the structure may show the parent alone. Read-outs that look alike come from different tables or passages of the source.

What was measured:
[1] = test system: gastric cancer cell line AGS; test: MTT proliferation, gastric cancer cell line AGS; format: cell-based; conditions: MTT, 72 hours, AGS; read-out: IC50 (μM) in gastric cancer cells, AGS
Method: (§1) The method for determining inhibitory activities of the compounds on the proliferation of tumor cells by an MTT method is as follows: a bottle of cells in a good state in an exponential growth phase is added with 0.25% trypsin digestive juice, the digestion makes adherent cells fall off, with 2 to 4×10^4 cells/mL, and a cell suspension is prepared. The cell suspension is inoculated on a 96-well plate, with 90 μL/well, and cultured in a constant-temperature CO2 incubator for 24 hours. The prepared compounds are added for testing, with 10 μL/well, and cultured for 72 hours. An MTT reagent is added into a 96-well plate, with 10 μL/well, and reacts in an incubator for 4 hours to absorb a supernatant, and then dimethyl sulfoxide is added, with 100 μL/well. After a crystal is dissolved, an absorbance of each well at a wavelength of 570 nm is measured by an enzyme-linked immunosorbent assay instrument, and a cell inhibition rate is calculated. An S curve is made with a compound concentration and a corresponding inhibition rate. Therefore, IC50 of a corresponding compound is obtained.
(§2) Anti-tumor dose-effect relationship curves of the cordycepin and 40 compounds prepared in gastric cancer cell lines AGS and BGC-823 were analyzed by an MTT experimental method.

[2] = test system: gastric cancer cell line BGC-823; test: MTT proliferation, gastric cancer cell line BGC-823; format: cell-based; conditions: MTT, 72 hours, BGC-823, read-out: IC50 (μM) in gastric cancer cells, BGC-823
Method: as §1, §2

[3] = test system: wild-type AB-line zebrafish; conditions: 3 dpf to 5 dpf, 35° C.; survival rate>90% and teratogenicity<20%
Method: The zebrafish model is a wild-type AB-line zebrafish from College of Biotechnology and Pharmaceutical Engineering, Nanjing Tech University, and is carried out by a natural mating reproduction method, with 30 zebrafish of 2 dpf in each experimental group. The zebrafish is fed in fish culture water at 28° C. (water quality:200 mg of instant sea salt and CaCO3 are added into 1 L of reverse osmosis water with a conductivity of 480 uS/cm to 510 uS/cm, a pH value of 6.9 to 7.2, and a hardness of 53.7 mg/L to 71.6 mg/L), and the feeding management meets the requirements of international AAALAC certification.
240 3 dpf wild-type AB-line zebrafish were randomly selected in an 8-well plate, with 30 zebrafish in each well, and 3 mL of fish culture water in each well, the cordycepin was diluted according to a maximum lethal dose, dissolved in DMSO, and added into each well according to a concentration gradient (the maximum lethal dose was diluted by 100 times, in which 8 concentration gradient values were taken for the experiment), and meanwhile, a normal control group, a solvent control group G (5% glucose) and a solvent control group D (DMSO) were set. During the experiment, the zebrafish in each group were cultured at 35° C., after the zebrafish were treated to be 5 dpf with a sample to be tested, lethal and developmental malformation conditions of the zebrafish in different doses were investigated respectively, and a maximum tolerance dose (MTD) of the sample to be tested to normal zebrafish was determined under a concentration when survival rate>90% and teratogenicity<20%.

[4] = test system: small cell lung cancer cell line H446; test: MTT proliferation, small cell lung cancer cell line H446; format: cell-based; conditions: MTT; for IC50: 72 hours, H446, read-out: IC50 (μM) of compounds in small cell lung cancer cells, H446
Method: as §1
(§3) Anti-tumor dose-effect relationship curves of cordycepin and compounds 1, 2, 4, 5, 7, 8, 10, 12, 16, 18, 21, 23, 24, 35 and 38 in small cell lung cancer cell lines H1048, H446 and H69 were analyzed by an MTT experimental method.

[5] = test system: small cell lung cancer cell line H1048; test: MTT proliferation, small cell lung cancer cell line H1048; format: cell-based; conditions: MTT, 72 hours, H1048, read-out: IC50 (μM) of compounds in small cell lung cancer cells, H1048
Method: as §1, §3

[6] = test system: small cell lung cancer cell line H69; test: MTT proliferation, small cell lung cancer cell line H69; format: cell-based; conditions: MTT, 72 hours, H69; read-out: IC50 (μM) of compounds in small cell lung cancer cells, H69
Method: as §1, §3

Compound	IC50 [1]	IC50 ([2]; Homo sapiens)	IC50 [6]	IC50 [2]	other results
CC(C)C(N)C(=O)OC1C[C@@H](CO)O[C@H]1n1cnc2c(N)ncnc21 (stereo partly shown) [Compound 29, 2-(6-amino-9H-purin-9-yl)-5-(hydroxymethyl)tetrahydrofuran-3-yl valine salt]	32.5 µM	41.4 µM			
CC(C)(C)C(=O)OCOP(=O)(COC[C@@H]1CC(O)[C@H](n2cnc3c(N)nc(F)nc32)O1)OCOC(=O)C(C)(C)C (stereo partly shown) [Compound 17]	1.32 µM	2.39 µM			
NC1=CS(=O)(=O)OC12C[C@@H](COP(=O)(O)O)O[C@H]2n1cnc2c(N)ncnc21 (stereo partly shown) [Compound 9, (4-amino-6-(6-amino-9H-purin-9-yl)-2,2-dioxide-1,7-dioxane-2-thiaspiro[4.4]non-3-ene-8-yl)dihydromethyl phosphate]	0.46 µM	1.24 µM			Maximum tolerance dose (MTD) in zebrafish model [3]: 14 µM
CC(C)COP(=O)(OCC(C)C)OC[C@@H]1CC(O)[C@H](n2cnc3c(N)ncnc32)O1 (stereo partly shown) [Compound 4, (5-(6-amino-9H-purine-9-yl)-4-hydroxytetrahydrofuran-2-yl)diisobutyl methylphosphate]	64.3 µM	86.2 µM	43.2 µM		IC50 ([4]; Homo sapiens, NCI-H446, 72 h): 54.3 µM; IC50 ([5]; Homo sapiens, NCI-H1048, 72 h): 42.1 µM
Nc1ncnc2c1ncn2[C@@H]1O[C@H](COCP(=O)(O)O)CC1O (stereo partly shown) [Compound 3]	86.7 µM	61.4 µM			
[N-]=[N+]=N[C@@H]1C(O)[C@H](n2cnc3c(N)ncnc32)O[C@@H]1COP(=O)(O)O (stereo partly shown) [Compound 25, (5-(6-amino-9H-purine-9-yl)-3-azide-4-hydroxytetrahydrofuran-2-yl)dihydromethyl phosphate]	47.6 µM	58.5 µM			Maximum tolerance dose (MTD) in zebrafish model [3]: 12 µM
Nc1nc(F)nc2c1ncn2[C@@H]1O[C@H](COP(=O)(O)O)CC1O (stereo partly shown) [Compound 13, (5-(6-amino-2-fluoro-9H-purine-9-yl)-4-hydroxytetrahydrofuran-2-yl)dihydromethyl phosphate]	32.5 µM	36.8 µM			Maximum tolerance dose (MTD) in zebrafish model [3]: 0.05 µM
Nc1nc(S)nc2c1ncn2[C@@H]1O[C@H](COP(=O)(O)O)CC1O (stereo partly shown) [Compound 14, (5-(6-amino-2-mercapto-9H-purine-9-yl)-4-hydroxytetrahydrofuran-2-yl)dihydromethyl phosphate]	12.9 µM	18.6 µM			
Nc1ncnc2c1ncn2[C@@H]1O[C@H](COP(=O)(O)O)[C@H](F)C1O (stereo partly shown) [Compound 15, (5-(6-amino-9H-purine-9-yl)-3-fluoro-4-hydroxytetrahydrofuran-2-yl)dihydromethyl phosphate]	18.4 µM	20.7 µM			
N-(3-hydroxy-5-(hydroxymethyl)tetrahydrofuran-2-yl)-9H-purine-6-yl)octadecylamine [Compound 10]	136 µM		9.48 µM	82.4 µM	IC50 [4]: 12.1 µM; IC50 [5]: 10.4 µM
isopropyl((((3-azide-4-hydroxy-5-(6-(isoniazid)-9H-purin-9-yl)tetrahydrofuran-2-yl)methoxy)methyl)(phenoxy)phosphoryl)alanine ester [Compound 28]	3.47 µM			5.42 µM	
CC(C)C(N)C(=O)OC1C[C@@H](COP(=O)(O)O)O[C@H]1n1cnc2c(N)ncnc21 (stereo partly shown) [Compound 30, 2-(6-amino-9H-purin-9-yl)-5-(phosphonoxy)methyl)tetrahydrofuran-3-yl valine salt]	75.4 µM	64.2 µM			
Nc1ncnc2c1ncn2[C@@H]1O[C@H](COCCO)CC1O (stereo partly shown) [Compound 1]	81.7 µM		20.6 µM	64.4 µM	IC50 [4]: 23.8 µM; IC50 [5]: 27.4 µM
CCCCCOC1CC(COCP(=O)(O)O)OC1n1cnc2c(NC(=O)c3ccncc3)ncnc21 (stereo not shown) [Compound 32, (((5-(6-(isonicotinamide)-9H-purine-9-yl)-4-(pentoxy)tetrahydrofuran-2-yl)methoxy)methyl)phosphonic acid]	23 µM			19.8 µM	
COC(=O)C(C)NP(=O)(Oc1ccccc1)OC1C[C@@H](CO)O[C@H]1n1cnc2c(N)ncnc21 (stereo partly shown) [Compound 33, methyl(((2-(6-amino-9H-purin-9-yl)-5-(hydroxymethyl)tetrahydrofuran-3-yl)oxy)(phenoxy)phosphoryl)alanine salt]	36.5 µM			29.5 µM	
CC(C)C(N)C(=O)OC1C[C@@H](COP(=O)(O)O)O[C@H]1n1cnc2c(NC(=O)c3ccncc3)ncnc21 (stereo partly shown) [Compound 31, 2-(6-(isonicotinamide)-9H-purin-9-yl)-5-(phosphonyl)methyl)tetrahydrofuran-3-yl valine salt]	41.2 µM	33.6 µM			
CC(C)(C)C(=O)OCOP(=O)(COC[C@H]1O[C@@H](n2cnc3c(N)ncnc32)C(O)[C@H]1N=[N+]=[N-])OCOC(=O)C(C)(C)C (stereo partly shown) [Compound 26, (((((5-(6-amino-9H-purine-9-yl)-3-azide-4-hydroxytetrahydrofuran-2-yl)methoxy)methyl)phosphoryl)bis(oxy))bis(methylene)bis(2,2-dimethylpropionic acid)]	57.4 µM	46.6 µM			
Nc1nc(/C=C/Br)nc2c1ncn2[C@@H]1O[C@H](COP(=O)(O)O)CC1O (stereo partly shown) [Compound 38, (5-(6-amino-2-((E)-2-bromocarbonyl)-9H-purine-9-yl)-4-hydroxytetrahydrofuran-2-yl)dihydromethyl phosphate]	134 µM	104 µM	1.25 µM		IC50 ([4]; Homo sapiens, NCI-H446, 72 h): 0.97 µM; killing effect on the three lines of cells in vitro ([4]; stated in words for all three lines H1048, H446 and H69): strong killing effect; IC50 ([5]; Homo sapiens, NCI-H1048, 72 h): 1.37 µM
N-(4-chloro-3-hydroxy-5-(hydroxymethyl)tetrahydrofuran-2-yl)-9H-purine-6-yl)octadecylamine [Compound 22]	45 µM			53.7 µM	
CC(C)(C)C(=O)OCOP(=O)(COC[C@@H]1CC(O)[C@H](n2cnc3c(NC(=O)c4ccncc4)ncnc32)O1)OCOC(=O)C(C)(C)C (stereo partly shown) [Compound 23]	0.89 µM	1.31 µM	20.2 µM		IC50 ([4]; Homo sapiens, NCI-H446, 72 h): 16.4 µM; IC50 ([5]; Homo sapiens, NCI-H1048, 72 h): 17.4 µM
CC(C)[C@H](N)C(=O)OCC(CO)OCC1CC(O)C(n2cnc3c(N)ncnc32)O1 (stereo partly shown) [Compound 8, 2-(-5-(6-amino-9H-purin-9-yl)-4-hydroxytetrahydrofuran-2-yl)methoxy)-3-hydroxypropyl valine salt]	27.8 µM		14.8 µM	18.8 µM	IC50 [4]: 10.5 µM; IC50 [5]: 14.5 µM
O=C(Nc1ncnc2c1ncn2[C@@H]1O[C@H](CO)CC1O)c1ccncc1 (stereo partly shown) [Compound 12]	1.23 µM	1.34 µM	19.5 µM		IC50 ([4]; Homo sapiens, NCI-H446, 72 h): 18.1 µM; IC50 ([5]; Homo sapiens, NCI-H1048, 72 h): 22.2 µM
Nc1ncnc2c1ncn2C1OC(COC2CC(CO)C(O)C2O)CC1O (stereo not shown) [Compound 40, 3-((5-(6-amino-9H-purin-9-yl)-4-hydroxytetrahydrofuran-2-yl)methoxy)-5-(hydroxymethyl)cyclopentane-1,2-diol]	164 µM	189 µM			
N-(2-fluoro-3-hydroxy-5-(hydroxymethyl)tetrahydrofuran-2-yl)-9H-purine-6-yl)octadecylamine [Compound 21]	2.46 µM		2.95 µM	4.38 µM	IC50 [4]: 4.58 µM; IC50 [5]: 6.38 µM
